The conditions of data set [1]: in biological milieu; estimated; cited from earlier work.
Data set [2] relates to precontracted bovine coronary artery rings. The experiment in a line: Vasorelaxation of U46619-precontracted bovine coronary artery rings. The class given is cell-based. The settings on record: for fold more potent than 14,15-EET as vasorelaxant (ED50): ratio of ED50 versus 14,15-EET.

For `CCCCCC1OC1C/C=C\C/C=C\C/C=C\CCCC(=O)O` (stereo not shown) [14,15-EET, 14,15-epoxyeicosa-5(Z),8(Z),11(Z)-trienoic acid], in data set [1], the half-life entry is “no more than seconds to minutes”.
With `CCCCCNC(=O)NCCCC/C=C\CCCCCCc1nnn[nH]1` [Compd 19, 1-(12-(1H-Tetrazol-5-yl)dodec-5(Z)-en-1-yl)-3-pentylurea], in data set [2], the “fold more potent than 14,15-EET as vasorelaxant (ED50)” value was 12 fold.
On the same count and under the same terms, the result for “N1-Butyl-N2-(12-(2-oxido-3H-1,2,3,5-oxathiadiazol-4-yl)dodec-5(Z)-en-1-yl)oxalamide [Compd 25]” reads 6 fold.
`CCCCCNC(=O)NCCCC/C=C\CCCCCNS(=O)(=O)c1ccccc1` [Compd 9]: the “improvement in the EC50 by a factor (versus parent free acid)” value in data set [2] (vasorelaxation EC50 compared with parent free acid) is on record as about 2.
